Laboratory results reported in US5807983A, “GNRH antagonist betides” (The Salk Institute for Biological Studies, priority 1996, dated 1998).

Test system: ovulation in mature female Sprague-Dawley rats
Experiment: standard in vivo rat anti-ovulation test
Conditions: injected in bacteriostatic water at about noon on the day of proestrus
Method: The betide is assayed in vivo to determine its effectiveness to prevent ovulation in female rats. Inthis test, a specified number of mature female Sprague-Dawley rats, e.g. five to ten, each having a body weight from 225 to 250 grams, are injected with a specified microgram dosage of the betide in bacteriostatic water at about noon on the day of proestrus. Proestrus is the […]. A separate female rat group is used as a control to which the peptide is not administered. Each of the control female rats ovulates on the evening of proestrus; the number of the rats treated which ovulate is recorded.

| Molecule | anti-ovulatory activity: rats ovulating out of rats treated (dosage 1 μg) | anti-ovulatory activity: rats ovulating out of rats treated (dosage 5 μg) | anti-ovulatory activity: rats ovulating out of rats treated (dosage 2.5 μg) | anti-ovulatory activity: rats ovulating out of rats treated (dosage 10 μg) | anti-ovulatory activity: rats ovulating out of rats treated (dosage 0.5 μg) |
| --- | --- | --- | --- | --- | --- |
| CC(=O)Nc1ccc(C[C@H](NC(=O)C(NC=O)NC(=O)[C@@H](Cc2cccnc2)NC(=O)[C@@H](Cc2ccc(Cl)cc2)NC(=O)[C@@H](Cc2ccc3ccccc3c2)NC(C)=O)C(=O)N[C@H](Cc2ccc(NC(C)=O)cc2)C(=O)N[C@@H](CC(C)C)C(=O)N[C@@H](CCCCNC(C)C)C(=O)N2CCC[C@H]2C(=O)N[C@H](C)C(N)=O)cc1 (single isomer, unassigned) [Betide No. 2B other isomer, Ac-D-2Nal-D-4Cpa-D-3Pal-D/L-Agl(formyl)-Aph(Ac)-D-Aph(Ac)-Leu-Lys(isopropyl)-Pro-D-Ala-NH2] | 6 out of 8 | 0/8 |  |  |  |
| Ac-D-2Nal-D-4Cpa-D-3Pal-Ser-Aph(acetyl)-D-Aph(acetyl)-D/L-Agl(isobutyryl)- Lys(isopropyl)-Pro-D-Ala-NH2 [Betide No. 6A] | 6 out of 8 |  | 0 out of 8 | 0 out of 8 |  |
| CC(=O)Nc1ccc(C[C@H](NC(=O)C(NC(=O)CO)NC(=O)[C@@H](Cc2cccnc2)NC(=O)[C@@H](Cc2ccc(Cl)cc2)NC(=O)[C@@H](Cc2ccc3ccccc3c2)NC(C)=O)C(=O)N[C@H](Cc2ccc(NC(C)=O)cc2)C(=O)N[C@@H](CC(C)C)C(=O)N[C@@H](CCCCNC(C)C)C(=O)N2CCC[C@H]2C(=O)N[C@H](C)C(N)=O)cc1 (single isomer, unassigned) [Betide No. 2A one of the isomers, Ac-D-2Nal-D-4Cpa-D-3Pal-D/L-Agl(HO-Ac)Aph(Ac)-D-Aph(Ac)-Leu-Lys(isopropyl)-Pro-D-Ala-NH2] |  | 2 out of 8 |  |  |  |
| CC(=O)Nc1ccc(C[C@H](NC(=O)C(NC(=O)[C@@H](Cc2cccnc2)NC(=O)[C@@H](Cc2ccc(Cl)cc2)NC(=O)[C@@H](Cc2ccc3ccccc3c2)NC(C)=O)N(C)C=O)C(=O)N[C@H](Cc2ccc(NC(C)=O)cc2)C(=O)N[C@@H](CC(C)C)C(=O)N[C@@H](CCCCNC(C)C)C(=O)N2CCC[C@H]2C(=O)N[C@H](C)C(N)=O)cc1 (single isomer, unassigned) [Betide No. 2 one isomer, Ac-D-2Nal-D-4Cpa-D-3Pal-D/L-(methyl,formyl)aminoGly-Aph(Ac)-D-Aph(Ac)-Leu- Lys(isopropyl)-Pro-D-Ala-NH2] |  |  | 5 out of 8 |  |  |
| Ac-γ-(2-naphthoyl)amidoGly-4Cl-D-Phe-D-3Pal-Ser-Aph(atz)-D-Aph(atz)- Leu-Lys(isopropyl)-Pro-D-Ala-NH2 [Betide No. 3A first isomer] | 5 out of 8 |  | 0/8 |  |  |
| Ac-D-2Nal-(4Cl)D-Phe-D-3Pal-Ser-(4-acetyl-aminobenzyl)D/L-amidoGly-D-Aph(acetyl)-Leu-Lys(isopropyl)-Pro-D-Ala-NH2 [Betide No. 4] |  | 2 out of 8 |  |  |  |
| CC(=O)Nc1ccc(C[C@H](NC(=O)C(NC=O)NC(=O)[C@@H](Cc2cccnc2)NC(=O)[C@@H](Cc2ccc(Cl)cc2)NC(=O)[C@@H](Cc2ccc3ccccc3c2)NC(C)=O)C(=O)N[C@H](Cc2ccc(NC(C)=O)cc2)C(=O)N[C@@H](CC(C)C)C(=O)N[C@@H](CCCCNC(C)C)C(=O)N2CCC[C@H]2C(=O)N[C@H](C)C(N)=O)cc1 (single isomer, unassigned) [Betide No. 2B first isomer, Ac-D-2Nal-D-4Cpa-D-3Pal-D/L-Agl(formyl)-Aph(Ac)-D-Aph(Ac)-Leu-Lys(isopropyl)-Pro-D-Ala-NH2] | 2 out of 8 | 0/8 |  |  | 4 out of 5 |
| CC(=O)Nc1ccc(C[C@H](NC(=O)[C@H](CO)NC(=O)C(NC(=O)c2cccnc2)NC(=O)[C@@H](Cc2ccc(Cl)cc2)NC(=O)[C@@H](Cc2ccc3ccccc3c2)NC(C)=O)C(=O)N[C@H](Cc2ccc(NC(C)=O)cc2)C(=O)N[C@@H](CC(C)C)C(=O)N[C@@H](CCCCNC(C)C)C(=O)N2CCC[C@H]2C(=O)N[C@H](C)C(N)=O)cc1 (single isomer, unassigned) [Betide No. 1 isomer (2), Ac-D-2Nal-(4Cl)D-Phe-γ-(3-pyridyl)amidoGly-Ser-Aph(acetyl)-D-Aph(acetyl)-Leu-Lys(isopropyl)-Pro-D-Ala-NH2] | 6 out of 14 |  | 0 out of 5 |  | 3 out of 4 |
| CC(=O)Nc1ccc(C[C@H](NC(=O)C(NC(=O)CO)NC(=O)[C@@H](Cc2cccnc2)NC(=O)[C@@H](Cc2ccc(Cl)cc2)NC(=O)[C@@H](Cc2ccc3ccccc3c2)NC(C)=O)C(=O)N[C@H](Cc2ccc(NC(C)=O)cc2)C(=O)N[C@@H](CC(C)C)C(=O)N[C@@H](CCCCNC(C)C)C(=O)N2CCC[C@H]2C(=O)N[C@H](C)C(N)=O)cc1 (single isomer, unassigned) [Betide No. 2A other isomer, Ac-D-2Nal-D-4Cpa-D-3Pal-D/L-Agl(HO-Ac)Aph(Ac)-D-Aph(Ac)-Leu-Lys(isopropyl)-Pro-D-Ala-NH2] |  | 4 out of 8 |  |  |  |
| CC(=O)Nc1ccc(C[C@H](NC(=O)[C@H](CO)NC(=O)C(NC(=O)c2cccnc2)NC(=O)[C@@H](Cc2ccc(Cl)cc2)NC(=O)[C@@H](Cc2ccc3ccccc3c2)NC(C)=O)C(=O)N[C@H](Cc2ccc(NC(C)=O)cc2)C(=O)N[C@@H](CC(C)C)C(=O)N[C@@H](CCCCNC(C)C)C(=O)N2CCC[C@H]2C(=O)N[C@H](C)C(N)=O)cc1 (single isomer, unassigned) [Betide No. 1 isomer (1), Ac-D-2Nal-(4Cl)D-Phe-γ-(3-pyridyl)amidoGly-Ser-Aph(acetyl)-D-Aph(acetyl)-Leu-Lys(isopropyl)-Pro-D-Ala-NH2] | all 3 rats ovulate |  | 0 out of 7 |  |  |
| Ac-β-D-2Nal-(4Cl)D-Phe-D-3Pal-Ser-(4-acetyl-aminobenzyl,methyl)D/L-amidoGly-D-Aph(acetyl)-Leu-Lys(isopropyl)-Pro-D-D-Ala-NH2 [Betide No. 4A] | 5 out of 8 |  | 0/8 |  |  |
| Ac-D-2Nal-D-4Cpa-D-3Pal-Ser-Aph(acetyl)-D-Aph(acetyl)-D/L-Agl(methyl,acetyl)-Lys(isopropyl)-Pro-D-Ala-NH2 [Betide No. 6] |  |  | 2 out of 8 | 0 out of 8 |  |
| Ac-β-D-2Nal-(4Cl)D-Phe-D-3Pal-Ser-Aph(acetyl)-γ-(4-acetamidophenyl)D/L-amidoGly-Leu-Lys(isopropyl)-Pro-D-Ala-NH2 [Betide No. 5] |  | 1 out of 8 | 2 out of 8 |  |  |
| Ac-D-2Nal-D-Cpa-D-3Pal-Ser-Aph(acetyl)-D-Aph(acetyl)-D/L-Agl(methyl,isobutyryl)-Lys(isopropyl)-Pro-D-Ala-NH2 [Betide No. 6B] | 2 out of 8 |  | 0 out of 8 |  |  |
| Ac-γ-(2-naphthoyl)amidoGly-4Cl-D-Phe-D-3Pal-Ser-Aph(atz)-D-Aph(atz)- Leu-Lys(isopropyl)-Pro-D-Ala-NH2 [Betide No. 3A second isomer] | 4 out of 8 |  | 0/3 |  |  |
